Broadly, the Kd is the concentration at which binding is half-saturated.

Molecules are shown by their SMILES.

For one experiment, the target named is Carbonic anhydrase 4 (Homo sapiens, UniProt P22748). Put plainly: Binding affinity to recombinant human CA4 by DSF-based fluorescence thermal shift assay.
The target of another experiment is Carbonic anhydrase 13 (Homo sapiens, UniProt Q8N1Q1). Put plainly: Binding affinity to recombinant human CA13 by DSF-based fluorescence thermal shift assay.
A further experiment concerns the target Carbonic anhydrase 3 (Homo sapiens, UniProt P07451). The experiment in a line: Binding affinity to recombinant N-terminal His6x-tagged human CA3 (4 to 260 residues) expressed in Escherichia coli BL21(DE3) by DSF-based fluorescence thermal shift assay.
Another experiment has as its target Carbonic anhydrase 6 (Homo sapiens, UniProt P23280). The experiment in a line: Binding affinity to recombinant human CA6 by DSF-based fluorescence thermal shift assay.
Another experiment concerns the target Carbonic anhydrase 12 (Homo sapiens, UniProt O43570). Put plainly: Binding affinity to recombinant human CA12 by DSF-based fluorescence thermal shift assay.
The target of the next experiment is Carbonic anhydrase 2 (Homo sapiens, UniProt P00918). Put plainly: Binding affinity to recombinant human CA2 by DSF-based fluorescence thermal shift assay.
The target of another experiment is Carbonic anhydrase 9 (Homo sapiens, UniProt Q16790). The experiment in a line: Binding affinity to recombinant human CA9 by DSF-based fluorescence thermal shift assay.
The target in a further experiment is Carbonic anhydrase 1 (Homo sapiens, UniProt P00915). The experiment in a line: Binding affinity to recombinant human CA1 by DSF-based fluorescence thermal shift assay.
The target in experiment [1] is Carbonic anhydrase 5B, mitochondrial (Homo sapiens, UniProt Q9Y2D0). The experiment in a line: Binding affinity to recombinant full length N-terminal His6x-tagged human CA5B expressed in Escherichia coli Rosetta 2 (DE3) by DSF-based fluorescence thermal shift assay.
For another experiment, the target named is Carbonic anhydrase 7 (Homo sapiens, UniProt P43166). The experiment in a line: Binding affinity to recombinant human CA7 by DSF-based fluorescence thermal shift assay.
Carbonic anhydrase 7, sequence (P43166 whole entry): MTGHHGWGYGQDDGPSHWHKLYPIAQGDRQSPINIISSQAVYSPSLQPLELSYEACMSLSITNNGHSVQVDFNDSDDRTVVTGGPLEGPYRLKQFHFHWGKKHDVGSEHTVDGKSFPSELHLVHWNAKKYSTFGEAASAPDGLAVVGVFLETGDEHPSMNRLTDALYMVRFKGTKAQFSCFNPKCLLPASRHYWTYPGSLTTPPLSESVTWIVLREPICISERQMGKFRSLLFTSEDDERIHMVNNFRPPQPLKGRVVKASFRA

Carbonic anhydrase 5B, mitochondrial, sequence (Q9Y2D0 whole entry): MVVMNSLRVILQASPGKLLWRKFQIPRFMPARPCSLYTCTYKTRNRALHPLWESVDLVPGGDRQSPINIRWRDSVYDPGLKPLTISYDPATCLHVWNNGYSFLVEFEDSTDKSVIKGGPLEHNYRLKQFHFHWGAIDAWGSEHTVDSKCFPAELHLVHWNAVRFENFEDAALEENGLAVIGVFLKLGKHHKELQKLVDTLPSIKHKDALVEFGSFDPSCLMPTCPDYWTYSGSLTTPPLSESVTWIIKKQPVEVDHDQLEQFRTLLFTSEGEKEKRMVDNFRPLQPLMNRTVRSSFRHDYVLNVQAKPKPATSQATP
Carbonic anhydrase 6, sequence (P23280 whole entry): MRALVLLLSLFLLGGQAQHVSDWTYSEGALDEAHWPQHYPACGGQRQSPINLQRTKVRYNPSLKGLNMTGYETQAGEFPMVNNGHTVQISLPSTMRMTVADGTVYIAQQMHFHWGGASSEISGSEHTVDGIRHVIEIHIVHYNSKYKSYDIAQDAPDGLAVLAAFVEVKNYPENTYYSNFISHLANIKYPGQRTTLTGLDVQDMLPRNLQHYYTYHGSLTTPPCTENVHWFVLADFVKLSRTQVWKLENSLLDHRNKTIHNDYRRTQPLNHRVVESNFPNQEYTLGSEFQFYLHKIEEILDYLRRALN
Carbonic anhydrase 4, sequence (P22748 whole entry): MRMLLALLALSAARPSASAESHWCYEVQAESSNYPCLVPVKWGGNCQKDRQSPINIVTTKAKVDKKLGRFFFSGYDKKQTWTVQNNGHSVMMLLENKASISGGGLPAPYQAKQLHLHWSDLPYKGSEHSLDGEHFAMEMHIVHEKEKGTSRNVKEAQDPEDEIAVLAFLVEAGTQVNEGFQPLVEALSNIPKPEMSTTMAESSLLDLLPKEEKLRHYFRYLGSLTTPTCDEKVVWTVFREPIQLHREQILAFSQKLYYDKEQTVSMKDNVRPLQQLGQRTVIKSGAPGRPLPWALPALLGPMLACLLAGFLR
Carbonic anhydrase 1, sequence (P00915 whole entry): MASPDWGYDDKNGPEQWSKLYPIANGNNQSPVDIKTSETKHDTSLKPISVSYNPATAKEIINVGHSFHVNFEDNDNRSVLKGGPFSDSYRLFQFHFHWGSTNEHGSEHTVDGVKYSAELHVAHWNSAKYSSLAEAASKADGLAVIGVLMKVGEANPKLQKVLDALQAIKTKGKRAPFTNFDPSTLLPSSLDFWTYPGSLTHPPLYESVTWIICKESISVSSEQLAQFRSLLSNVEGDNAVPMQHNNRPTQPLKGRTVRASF
Carbonic anhydrase 3, sequence (P07451 whole entry, the tested form may be a part): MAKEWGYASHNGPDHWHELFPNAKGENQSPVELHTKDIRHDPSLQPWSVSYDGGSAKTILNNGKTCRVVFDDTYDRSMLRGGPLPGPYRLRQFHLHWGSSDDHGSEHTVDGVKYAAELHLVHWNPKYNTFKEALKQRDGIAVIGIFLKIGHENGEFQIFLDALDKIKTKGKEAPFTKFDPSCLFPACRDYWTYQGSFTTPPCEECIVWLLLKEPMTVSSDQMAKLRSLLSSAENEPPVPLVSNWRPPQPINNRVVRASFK
Carbonic anhydrase 13, sequence (Q8N1Q1 whole entry, the tested form may be a part): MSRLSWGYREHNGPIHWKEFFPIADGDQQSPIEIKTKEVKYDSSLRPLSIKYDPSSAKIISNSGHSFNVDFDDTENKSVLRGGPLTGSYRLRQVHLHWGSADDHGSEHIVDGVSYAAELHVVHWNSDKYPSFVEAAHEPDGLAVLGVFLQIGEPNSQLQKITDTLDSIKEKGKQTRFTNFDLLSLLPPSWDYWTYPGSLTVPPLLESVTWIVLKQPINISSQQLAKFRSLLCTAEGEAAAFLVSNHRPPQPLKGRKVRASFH
Carbonic anhydrase 12, sequence (O43570 whole entry): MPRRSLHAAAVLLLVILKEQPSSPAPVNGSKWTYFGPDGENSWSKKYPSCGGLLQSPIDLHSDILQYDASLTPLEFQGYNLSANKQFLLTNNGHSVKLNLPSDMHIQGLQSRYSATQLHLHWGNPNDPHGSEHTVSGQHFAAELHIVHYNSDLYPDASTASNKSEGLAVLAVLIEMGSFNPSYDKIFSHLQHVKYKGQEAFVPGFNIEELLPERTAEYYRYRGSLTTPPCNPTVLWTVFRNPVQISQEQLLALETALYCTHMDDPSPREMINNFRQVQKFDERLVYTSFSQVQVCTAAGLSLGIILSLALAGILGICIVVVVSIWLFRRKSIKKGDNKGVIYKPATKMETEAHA

On to `Cc1cc(C)cc(NC(=O)C2CC(=O)N(c3ccccc3)C2)c1` (stereo not given), for which the Kd at Carbonic anhydrase 4, at Carbonic anhydrase 13, at Carbonic anhydrase 3, at Carbonic anhydrase 6, at Carbonic anhydrase 12 and on Carbonic anhydrase 2 was at least 200000 nM throughout. For the same compound, the Kd (on Carbonic anhydrase 9; at Carbonic anhydrase 1; in experiment [1]) was at least 200000 nM throughout.
Consider `Cc1c(Br)c(N2CC(C(=O)NN)CC2=O)c(Br)c(C)c1S(N)(=O)=O` (stereo not given), for which the Kd on Carbonic anhydrase 4, on Carbonic anhydrase 13, at Carbonic anhydrase 3, at Carbonic anhydrase 6, on Carbonic anhydrase 12 and on Carbonic anhydrase 2 was at least 200000 nM each time. The Kd (at Carbonic anhydrase 9; on Carbonic anhydrase 1; in [1]; on Carbonic anhydrase 7) was at least 200000 nM in each case.
With `COC(=O)C1CC(=O)N(c2cc(C)c(S(N)(=O)=O)c(C)c2)C1` (stereo not given), the Kd on Carbonic anhydrase 4 is 6700 nM; at Carbonic anhydrase 13, 2000 nM; on Carbonic anhydrase 3, at least 200000 nM; on Carbonic anhydrase 6, 50000 nM; on Carbonic anhydrase 2 it was 2000 nM; at Carbonic anhydrase 9 it was 3000 nM. Besides, the figures for the Kd (at Carbonic anhydrase 1; in experiment [1]; on Carbonic anhydrase 7) were 1500 nM, at least 200000 nM and 3400 nM, respectively.
For the compound `COc1ccc(/C=N/NC(=O)C2CC(=O)N(c3cc(C)c(S(N)(=O)=O)c(C)c3Cl)C2)cc1` (stereo not given), the Kd was 180 nM on Carbonic anhydrase 4; 50 nM at Carbonic anhydrase 13; at least 200000 nM on Carbonic anhydrase 3; 590 nM at Carbonic anhydrase 6; 56 nM at Carbonic anhydrase 2; 77 nM at Carbonic anhydrase 9. For the same compound, the dissociation constant (Kd) on Carbonic anhydrase 1 stood at 710 nM; in experiment [1] it was 3.2 nM; at Carbonic anhydrase 7, 16 nM.
For `Cc1cc(NC(=O)C2CC(=O)N(c3ccccc3)C2)cc(C)c1S(N)(=O)=O` (stereo not given), the Kd on Carbonic anhydrase 4 was 6800 nM; at Carbonic anhydrase 13, 3900 nM; on Carbonic anhydrase 3, at least 200000 nM; at Carbonic anhydrase 6 it was 45000 nM; at Carbonic anhydrase 12, at least 200000 nM; on Carbonic anhydrase 1, 1600 nM. The Kd on Carbonic anhydrase 7 came to 8300 nM.
For `Cc1cc(N2CC(c3n[nH]c(=S)o3)CC2=O)c(Cl)c(C)c1S(N)(=O)=O` (stereo not given), the Kd was 100 nM at Carbonic anhydrase 13; at least 200000 nM at Carbonic anhydrase 3; 3300 nM on Carbonic anhydrase 6; 100 nM on Carbonic anhydrase 2; 67 nM on Carbonic anhydrase 9; 830 nM at Carbonic anhydrase 1. In addition, the figures for the Kd (in experiment [1]; at Carbonic anhydrase 7) were 250 nM and 130 nM, respectively.
For `Cc1cc(C)n(NC(=O)C2CC(=O)N(c3cc(C)c(S(N)(=O)=O)c(C)c3Cl)C2)n1` (stereo not given), the Kd at Carbonic anhydrase 13 worked out at 10 nM; on Carbonic anhydrase 6 it was 3300 nM; on Carbonic anhydrase 12, 2000 nM; at Carbonic anhydrase 2 it was 20 nM; on Carbonic anhydrase 9 it was 100 nM; on Carbonic anhydrase 1, 1100 nM. Also, the results for the Kd (in [1]; at Carbonic anhydrase 7) were 100 nM and 25 nM, respectively.
For the compound `NS(=O)(=O)c1ccc(NC(=O)C2CC(=O)N(c3cccc(Br)c3)C2)cc1` (stereo not given), the Kd was 810 nM at Carbonic anhydrase 4; 1100 nM on Carbonic anhydrase 13; at least 200000 nM on Carbonic anhydrase 3; 2400 nM at Carbonic anhydrase 6; 10000 nM on Carbonic anhydrase 12; 190 nM on Carbonic anhydrase 2. Further, the Kd was determined as 56 nM at Carbonic anhydrase 9, 310 nM at Carbonic anhydrase 1, 740 nM in [1] and 170 nM on Carbonic anhydrase 7.
Regarding `Cc1cc(N2CC(C(=O)NNC(=S)Nc3ccccc3)CC2=O)c(Cl)c(C)c1S(N)(=O)=O` (stereo not given), the Kd is 14 nM on Carbonic anhydrase 13; 2200 nM on Carbonic anhydrase 6; 360 nM at Carbonic anhydrase 12; 32 nM on Carbonic anhydrase 2; 100 nM at Carbonic anhydrase 9; 360 nM at Carbonic anhydrase 1. Besides, the figures for the Kd (in experiment [1]; at Carbonic anhydrase 7) were 200 nM and 100 nM, respectively.
On to `Cc1cc(NCC(CC(=O)O)c2n[nH]c(=S)n2-c2ccccc2)cc(C)c1S(N)(=O)=O` (stereo not given), for which the dissociation constant (Kd) on Carbonic anhydrase 4 is at least 200000 nM; at Carbonic anhydrase 13, 33000 nM; at Carbonic anhydrase 6 it was at least 200000 nM; on Carbonic anhydrase 12 it was 50000 nM; at Carbonic anhydrase 2, 100000 nM; on Carbonic anhydrase 1, 100000 nM. For the same compound, the Kd (in experiment [1]; at Carbonic anhydrase 7) was at least 200000 nM in each case.
Consider `COC(=O)C1CC(=O)N(c2cc(C)c(S(N)(=O)=O)c(C)c2Cl)C1` (stereo not given), for which the Kd on Carbonic anhydrase 4 was 1000 nM; at Carbonic anhydrase 13, 14 nM; at Carbonic anhydrase 3, at least 200000 nM; at Carbonic anhydrase 6 it was 4800 nM; at Carbonic anhydrase 2, 29 nM; on Carbonic anhydrase 9, 100 nM. Further, the Kd is 670 nM at Carbonic anhydrase 1, 25 nM in experiment [1] and 13 nM at Carbonic anhydrase 7.
Take `Cc1c(Br)c(N2CC(C(=O)N/N=C/c3ccccc3)CC2=O)c(Br)c(C)c1S(N)(=O)=O` (stereo not given): the Kd at Carbonic anhydrase 4, at Carbonic anhydrase 13, at Carbonic anhydrase 3, at Carbonic anhydrase 6, at Carbonic anhydrase 12 and at Carbonic anhydrase 2 was at least 200000 nM throughout. Also, the Kd (on Carbonic anhydrase 9; at Carbonic anhydrase 1; in experiment [1]; on Carbonic anhydrase 7) was at least 200000 nM in each case.
Consider `NS(=O)(=O)c1ccc(NC(=O)C2CC(=O)N(c3ccccc3)C2)cc1` (stereo not given), for which the Kd was 850 nM at Carbonic anhydrase 4; 660 nM on Carbonic anhydrase 13; at least 200000 nM on Carbonic anhydrase 3; 3600 nM on Carbonic anhydrase 6; 5600 nM on Carbonic anhydrase 12; 88 nM on Carbonic anhydrase 2. In addition, the Kd was 53 nM on Carbonic anhydrase 9, 260 nM on Carbonic anhydrase 1, 550 nM in [1] and 110 nM at Carbonic anhydrase 7.
In the case of `Cc1cc(C)n(C(=O)C2CC(=O)N(c3cc(C)c(S(N)(=O)=O)c(C)c3Cl)C2)n1` (stereo not given), the Kd at Carbonic anhydrase 3 is at least 200000 nM; at Carbonic anhydrase 6, 3300 nM; at Carbonic anhydrase 12, 1000 nM; on Carbonic anhydrase 2, 25 nM; at Carbonic anhydrase 9, 140 nM; at Carbonic anhydrase 1, 250 nM. For the same compound, the Kd in experiment [1] came to 13 nM; at Carbonic anhydrase 7, 20 nM.
As for `Cc1cc(NCC(CC(=O)O)c2n[nH]c(=S)n2-c2ccccc2)c(Cl)c(C)c1S(N)(=O)=O` (stereo not given), the Kd is 10000 nM at Carbonic anhydrase 4; 1400 nM on Carbonic anhydrase 13; 10000 nM on Carbonic anhydrase 6; 2500 nM on Carbonic anhydrase 12; 17000 nM at Carbonic anhydrase 2; 1000 nM at Carbonic anhydrase 9. For the same compound, the results for the Kd (on Carbonic anhydrase 1; in experiment [1]; on Carbonic anhydrase 7) were 40000 nM, 10000 nM and 7700 nM, respectively.
For the compound `Cc1cc(N2CC(c3n[nH]c(=S)n3-c3ccccc3)CC2=O)c(Cl)c(C)c1S(N)(=O)=O` (stereo not given), the Kd is 17 nM at Carbonic anhydrase 13; at least 200000 nM at Carbonic anhydrase 3; 3100 nM on Carbonic anhydrase 6; 500 nM at Carbonic anhydrase 12; 33 nM on Carbonic anhydrase 2; 89 nM at Carbonic anhydrase 9. The results for the Kd (on Carbonic anhydrase 1; in [1]; at Carbonic anhydrase 7) were 440 nM, 40 nM and 8.7 nM, respectively.
As for `COC(=O)C1CC(=O)N(c2c(Br)c(C)c(S(N)(=O)=O)c(C)c2Br)C1` (stereo not given), the Kd at Carbonic anhydrase 4, at Carbonic anhydrase 13, at Carbonic anhydrase 3, on Carbonic anhydrase 6, at Carbonic anhydrase 12 and at Carbonic anhydrase 2 was at least 200000 nM in each case. The Kd (at Carbonic anhydrase 9; on Carbonic anhydrase 1; in experiment [1]; on Carbonic anhydrase 7) was at least 200000 nM throughout.
`NS(=O)(=O)c1ccc(NC(=O)C2CC(=O)N(c3ccccc3Br)C2)cc1` (stereo not given): the dissociation constant (Kd) is 400 nM at Carbonic anhydrase 4; 200 nM on Carbonic anhydrase 13; at least 200000 nM at Carbonic anhydrase 3; 3700 nM on Carbonic anhydrase 6; 3500 nM at Carbonic anhydrase 12; 87 nM on Carbonic anhydrase 2. In addition, the Kd at Carbonic anhydrase 9 was 38 nM; on Carbonic anhydrase 1, 210 nM; in [1], 190 nM; on Carbonic anhydrase 7 it was 51 nM.
As to `Cc1cc(S(N)(=O)=O)c(C)cc1N1CC(C(=O)N/N=C/c2ccc([N+](=O)[O-])cc2)CC1=O` (stereo not given), the Kd on Carbonic anhydrase 4 was 17000 nM; on Carbonic anhydrase 13, 320 nM; at Carbonic anhydrase 3 it was at least 200000 nM; at Carbonic anhydrase 6, 9900 nM; at Carbonic anhydrase 12 it was 14000 nM; on Carbonic anhydrase 2, 2100 nM. For the same compound, the Kd at Carbonic anhydrase 9 was determined as 1100 nM; at Carbonic anhydrase 1, 6200 nM; in experiment [1], 28 nM; on Carbonic anhydrase 7, 1300 nM.
Turning to `Cc1c(Br)c(N2CC(C(=O)N/N=C/c3ccc([N+](=O)[O-])cc3)CC2=O)c(Br)c(C)c1S(N)(=O)=O` (stereo not given), the Kd at Carbonic anhydrase 13, on Carbonic anhydrase 12, at Carbonic anhydrase 2 and on Carbonic anhydrase 1 was at least 200000 nM in each case.
With `NS(=O)(=O)c1ccc(NC(=O)C2CC(=O)N(c3ccc(Br)cc3)C2)cc1` (stereo not given), the Kd at Carbonic anhydrase 4 was 5600 nM; on Carbonic anhydrase 13, 3100 nM; at Carbonic anhydrase 3, at least 200000 nM; at Carbonic anhydrase 6, 17000 nM; on Carbonic anhydrase 12, 39000 nM; on Carbonic anhydrase 2 it was 640 nM. Also, the Kd at Carbonic anhydrase 9 was found to be 430 nM; at Carbonic anhydrase 1 it was 3300 nM; in experiment [1], 3800 nM; on Carbonic anhydrase 7, 1500 nM.
`Cc1c(Br)c(N2CC(C(=O)O)CC2=O)c(Br)c(C)c1S(N)(=O)=O` (stereo not given): the Kd at Carbonic anhydrase 4, at Carbonic anhydrase 13, on Carbonic anhydrase 3, on Carbonic anhydrase 6, at Carbonic anhydrase 12 and at Carbonic anhydrase 2 was at least 200000 nM throughout. Besides, the dissociation constant (Kd) (on Carbonic anhydrase 9; on Carbonic anhydrase 1; in experiment [1]; at Carbonic anhydrase 7) was at least 200000 nM each time.
